Laboratory results: patent US20250320557A1, “USE OF ABCF1 IN METHODS OF DIAGNOSING AND MONITORING INFLAMMATORY AND/OR AUTOIMMUNE DISEASE” (MYND Life Sciences Inc., priority 2021, published 2025)

What was measured:
ABCF1 [1] = experiment: real time RT-PCR for ABCF1 in RAW macrophages treated with Escitalopram; type: cell-based; conditions: 0.3 mM Escitalopram, 1 hour
Protocol: (§1) FIG. 1 illustrates that Escitalopram induces ABCF1 in a Macrophage cell line: RAW macrophages were plated at 1×10^5 cells/well and cultured for 2 days. The cells were incubated with 0.3 mM Escitalopram for 1 hour, and then harvested for total RNA, which was extracted for real time RT-PCR specific for ABCF1 and IL-4. CT values were normalized with CT value for the housekeeping gene from the DMSO control. The difference in the expression after drug treatment is consistent with polarization towards an M2-like phenotype (data were consistent in 3 separate experiments).

IL-4 = experiment: real time RT-PCR for IL-4 in RAW macrophages treated with Escitalopram; type: cell-based; conditions: macrophage cell line (RAW); 0.3 mM Escitalopram, 1 hour; normalized to housekeeping gene, DMSO control
Protocol: as §1

ABCF1 [2] = conditions: peripheral blood mononuclear cells of patients responding to treatment; cited from earlier work
ABCF1 [3] = experiment: qPCR of ABCF1 transcription in macrophage cell line RAW264.7 (dose response / time course); type: cell-based; conditions: 10 nM, 100 nM, 500 nM, 2 hours, normalized against GAPDH
Protocol: FIG. 3 illustrates the effect of psylocibin, psylocin and their analogs on ABCF1 transcription in a macrophage cell line. Briefly, the Macrophage cell line RAW264.7 (ATCC) were grown to 80% confluency in growth media (DMEM+ 10% FBS+ glutamine). Dilutions of psylocibin, psylocin and their analogs were made at desired final concentrations for a Dose response experiment. The concentrations' used for this experiment are: 10 nM, 100 nM, 500 nM for Psilocin, Psylocibin, 4-Acetoxy-N, N-dimthyltryptamine, O-Acetyl Psilocin Fumerate, and 4-acetoxyindole. The cells were incubated for 2 hours and then harvested for total RNA, which was extracted for real time RT-PCR specific for ABCF1. Untreated cells were used as negative control and Escitalopram at 0.3 mM was used as a positive control to activate ABCF1 expression for all the experiments. ES=escitalopram; PSYB=Psylocibin; PSIC=Psilocin; DMT=4-Acetoxy-N, N-dimthyltryptamine; APF=O-Acetyl Psilocin Fumerate, and AOI=4-acetoxyindole.
• 1. Macrophage cell line RAW264.7 (ATCC) were grown to 80% confluency in growth media (DMEM+10% FBS+glutamine). • 2. Dilutions of the drugs were made at desired final concentrations for a Dose response experiment. […]
• 1. […] Normalized against the expression level of GAPDH, the fold change expression level of ABCF1 was calculated and tabulated for all treatment conditions.

Structure (SMILES) | ABCF1 induction (in words) (ABCF1 [1]; RAW macrophages) | induction of ABCF1 (ABCF1 [1]; macrophage cell line (RAW), normalized to housekeeping gene, DMSO control) | induction of IL-4 (IL-4) | ABCF1 transcription in PBMCs (ABCF1 [2]) | effect on ABCF1 transcription (ABCF1 [3])
CN(C)CCC[C@@]1(c2ccc(F)cc2)OCc2cc(C#N)ccc21 [Escitalopram] | induces ABCF1 | approximately 20 fold | approximately 5 fold | increased the transcription of a single gene: ABCF1 | 
CN(C)CCc1c[nH]c2cccc(OP(=O)(O)O)c12 [psylocibin, Psylocibin] |  |  |  |  | upregulate ABCF1 transcription
CN(C)CCc1c[nH]c2cccc(O)c12 [psylocin, Psilocin] |  |  |  |  | upregulate ABCF1 transcription
